Assay results reported in the supplement of paper PMC10307832.

Legend:
Test in all cases: relative viability (nuclei count vs DMSO), 5 days (fraction); higher = more cells survive
[1] = compound: CC(C)C[C@H](NC(=O)[C@H](CCc1ccccc1)NC(=O)CN1CCOCC1)C(=O)N[C@@H](Cc1ccccc1)C(=O)N[C@@H](CC(C)C)C(=O)[C@@]1(C)CO1 [Carfilzomib] + C[C@@H](Oc1cc(-c2cnn(C3CCNCC3)c2)cnc1N)c1c(Cl)ccc(F)c1Cl [Crizotinib] (partner 1 µM)
In short: (§1)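 One day after seeding in 1536-well plates, lung cancer cell lines were dosed by pin tool. Dosing was either single-drug or a fixed anchor-drug dose plus five library-drug doses (not always all listed) in √10 steps. After 5 days, nuclei were stained in one fix-and-stain step and counted on 4× images, and relative viability is the nuclei count of treated wells over that of vehicle wells, given as the median of duplicate plates.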

[2] = compound: CC(C)C[C@H](NC(=O)[C@H](CCc1ccccc1)NC(=O)CN1CCOCC1)C(=O)N[C@@H](Cc1ccccc1)C(=O)N[C@@H](CC(C)C)C(=O)[C@@]1(C)CO1 [Carfilzomib] + Nc1ncn([C@H]2C[C@H](O)[C@@H](CO)O2)c(=O)n1 [Decitabine] (partner 2 µM)
In short: as §1

[3] = compound: CC(C)C[C@H](NC(=O)[C@H](CCc1ccccc1)NC(=O)CN1CCOCC1)C(=O)N[C@@H](Cc1ccccc1)C(=O)N[C@@H](CC(C)C)C(=O)[C@@]1(C)CO1 [Carfilzomib] + COc1cccc2cc(-c3nc([C@H]4CC[C@H](C(=O)O)CC4)n4ncnc(N)c34)[nH]c12 [OSI-027] (partner 0.5 µM)
In short: as §1

[4] = compound: O=C(c1cc(Cc2n[nH]c(=O)c3ccccc23)ccc1F)N1CCN(C(=O)C2CC2)CC1 [Olaparib] + Cc1cc(Nc2cc(N3CCN(C)CC3)nc(Sc3ccc(NC(=O)C4CC4)cc3)n2)n[nH]1 [Tozasertib] (partner 0.1 µM)
In short: as §1

Cell Line | relative viability ([1]; first compound 0.001 µM) | relative viability ([1]; first compound 0.003162 µM) | relative viability ([1]; first compound 0.01 µM) | relative viability ([1]; first compound 0.03162 µM) | relative viability ([1]; first compound 0.1 µM) | relative viability ([2]; first compound 0.001 µM) | relative viability ([2]; first compound 0.003162 µM) | relative viability ([2]; first compound 0.01 µM) | relative viability ([2]; first compound 0.03162 µM) | relative viability ([2]; first compound 0.1 µM) | relative viability ([3]; first compound 0.001 µM) | relative viability ([3]; first compound 0.003162 µM) | relative viability ([3]; first compound 0.01 µM) | relative viability ([3]; first compound 0.03162 µM) | relative viability ([3]; first compound 0.1 µM) | relative viability ([4]; first compound 0.08 µM) | relative viability ([4]; first compound 0.253 µM) | relative viability ([4]; first compound 2.53 µM) | relative viability ([4]; first compound 8 µM)
NCI-H2023 | 0.666 | 0.64 | 0.733 | 0.375 | 0.0656 | 0.184 | 0.23 | 0.173 | 0.203 | 0.0666 | 0.386 | 0.435 | 0.467 | 0.147 | 0.0792 | 0.357 | 0.298 | 0.32 | 0.238
NCI-H2085 | 0.83 | 0.769 | 0.662 | 0.368 | 0.225 | 0.589 | 0.608 | 0.584 | 0.421 | 0.297 | 0.59 | 0.799 | 0.64 | 0.264 | 0.27 | 0.943 | 0.756 | 0.847 | 0.753
NCI-H2087 | 0.876 | 1.03 | 0.827 | 0.0787 | 0.091 | 0.214 | 0.247 | 0.179 | 0.0542 | 0.0427 | 0.593 | 0.636 | 0.302 | 0.0521 | 0.0683 | 0.31 | 0.204 | 0.324 | 0.18
NCI-H2126 | 0.98 | 1.07 | 0.989 | 1.01 | 0.707 | 0.627 | 0.625 | 0.552 | 0.597 | 0.555 | 0.721 | 0.707 | 0.76 | 0.726 | 0.331 | 0.915 | 0.794 | 0.869 | 0.83
NCI-H2170 | 1.1 | 1.32 | 1.33 | 0.528 | 0.2 | 0.451 | 0.474 | 0.448 | 0.477 | 0.22 | 0.643 | 0.696 | 0.792 | 0.72 | 0.271 | 0.81 | 0.806 | 0.705 | 0.629
NCI-H2347 | 0.798 | 0.756 | 0.596 | 0.449 | 0.35 | 0.625 | 0.608 | 0.66 | 0.594 | 0.389 | 0.415 | – | 0.366 | 0.26 | 0.217 | 0.548 | 0.48 | 0.483 | 0.54
NCI-H2405 | 0.807 | 0.916 | 0.866 | 0.785 | 0.175 | 0.803 | 0.881 | 0.763 | 0.57 | 0.225 | – | 0.667 | 0.651 | 0.507 | 0.305 | 0.807 | 0.722 | 0.66 | 0.654
NCI-H3122 | 0.3 | 0.286 | 0.259 | 0.303 | 0.274 | 0.451 | 0.441 | 0.421 | 0.462 | 0.216 | 1.01 | 1.05 | 1.07 | 0.872 | 0.154 | 0.466 | 0.376 | 0.457 | 0.346
